Test results published in patent US12479850B2, “Compound having Axl and c-Met kinase inhibitory activity, preparation thereof and application thereof” (Shanghai Institute of Materia Medica, Chinese Academy of …, priority 2019, dated 2025).

Key:
[1] = molecular target: T1, Axl kinase domain recombinant protein (Homo sapiens, UniProt P30530); assay: ELISA kinase activity assay, Axl
T1 sequence (P30530 536-807 limits assumed): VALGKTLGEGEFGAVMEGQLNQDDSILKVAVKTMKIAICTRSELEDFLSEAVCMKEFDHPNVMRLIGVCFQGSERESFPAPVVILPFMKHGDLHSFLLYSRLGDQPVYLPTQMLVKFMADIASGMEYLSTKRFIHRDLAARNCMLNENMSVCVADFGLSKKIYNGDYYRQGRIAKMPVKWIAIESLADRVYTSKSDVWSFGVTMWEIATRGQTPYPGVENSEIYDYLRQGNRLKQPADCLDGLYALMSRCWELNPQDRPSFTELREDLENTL

[2] = molecular target: c-Met kinase domain recombinant protein (Homo sapiens, UniProt P08581); assay: ELISA kinase activity assay, c-Met
Sequence of c-Met kinase domain recombinant protein (P08581 1078-1345 limits assumed): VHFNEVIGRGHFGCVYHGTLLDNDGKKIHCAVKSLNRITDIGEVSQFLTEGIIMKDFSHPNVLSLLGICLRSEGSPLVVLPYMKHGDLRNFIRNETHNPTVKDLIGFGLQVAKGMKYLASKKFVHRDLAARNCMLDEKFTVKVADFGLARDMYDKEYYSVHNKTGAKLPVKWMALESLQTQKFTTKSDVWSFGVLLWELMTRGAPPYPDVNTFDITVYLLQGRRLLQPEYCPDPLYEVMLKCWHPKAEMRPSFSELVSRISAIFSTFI

| SMILES | IC50 [1] [nM] | IC50 [2] [nM] |
| --- | --- | --- |
| Cn1cc(-c2cc(Oc3ccc(NC(=O)c4cn(C)c(=O)n(-c5ccc(F)cc5)c4=O)cc3F)ccn2)cn1 [No. 1, N-(3-fluoro-4-((2-(1-methyl-1H-pyrazol-4-yl)pyridin-4-yl)oxy)phenyl)-3-(4-fluorophenyl)-1-methyl-2,4-dioxo-1,2,3,4-tetrahydropyrimidin-5-carboxamide] | < 10 | < 10 |
| CCn1cc(C(=O)Nc2ccc(Oc3ccnc(-c4cnn(C)c4)c3)c(F)c2)c(=O)n(-c2ccc(F)cc2)c1=O [No. 2, 1-ethyl-N-(3-fluoro-4-((2-(1-methyl-1H-pyrazol-4-yl)pyridin-4-yl)oxy)phenyl)-3-(4-fluorophenyl)-2,4-dioxo-1,2,3,4-tetrahydropyrimidin-5-formamide] | < 10 | < 10 |
| CC(C)n1cc(C(=O)Nc2ccc(Oc3ccnc(-c4cnn(C)c4)c3)c(F)c2)c(=O)n(-c2ccc(F)cc2)c1=O [No. 3, N-(3-fluoro-4-((2-(1-methyl-1H-pyrazol-4-yl)pyridin-4-yl)oxy)phenyl)-3-(4-fluorophenyl)-1-isopropyl-2,4-dioxo-1,2,3,4-tetrahydropyrimidin-5-carboxamide] | – | < 10 |
| CCCn1cc(C(=O)Nc2ccc(Oc3ccnc(-c4cnn(C)c4)c3)c(F)c2)c(=O)n(-c2ccc(F)cc2)c1=O [No. 4, N-(3-fluoro-4-((2-(1-methyl-1H-pyrazol-4-yl)pyridin-4-yl)oxy)phenyl)-3-(4-fluorophenyl)-1-propyl-2,4-dioxo-1,2,3,4-tetrahydropyrimidin-5-carboxamide] | < 10 | < 10 |
| Cn1cc(-c2cc(Oc3ccc(NC(=O)c4cn(CC5CC5)c(=O)n(-c5ccc(F)cc5)c4=O)cc3F)ccn2)cn1 [No. 5, 1-(cyclopropylmethyl)-N-(3-fluoro-4-((2-(1-methyl-1H-pyrazol-4-yl)pyridin-4-yl)oxy)phenyl)-3-(4-fluorophenyl)-2,4-dioxo-1,2,3,4-tetrahydropyrimidin-5-carboxamide] | < 10 | < 10 |
| Cn1cc(-c2cc(Oc3ccc(NC(=O)c4cn(CC5CCCC5)c(=O)n(-c5ccc(F)cc5)c4=O)cc3F)ccn2)cn1 [No. 6, 1-(cyclopentylmethyl)-N-(3-fluoro-4-((2-(1-methyl-1H-pyrazol-4-yl)pyridin-4-yl)oxy)phenyl)-3-(4-fluorophenyl)-2,4-dioxo-1,2,3,4-tetrahydropyrimidin-5-carboxamide] | 10 to 100 | 10 to 100 |
| C=CCn1cc(C(=O)Nc2ccc(Oc3ccnc(-c4cnn(C)c4)c3)c(F)c2)c(=O)n(-c2ccc(F)cc2)c1=O [No. 7, 1-allyl-N-(3-fluoro-4-((2-(1-methyl-1H-pyrazol-4-yl)pyridin-4-yl)oxy)phenyl)-3-(4-fluorophenyl)-2,4-dioxo-1,2,3,4-tetrahydropyrimidin-5-carboxamide] | < 10 | < 10 |
| C#CCn1cc(C(=O)Nc2ccc(Oc3ccnc(-c4cnn(C)c4)c3)c(F)c2)c(=O)n(-c2ccc(F)cc2)c1=O [No. 8, N-(3-fluoro-4-((2-(1-methyl-1H-pyrazol-4-yl)pyridin-4-yl)oxy)phenyl)-3-(4-fluorophenyl)-2,4-dioxo-1-propargyl-1,2,3,4-tetrahydropyrimidin-5-carboxamide] | 10 to 100 | 10 to 100 |
| Cn1cc(-c2cc(Oc3ccc(NC(=O)c4cn(CCO)c(=O)n(-c5ccc(F)cc5)c4=O)cc3F)ccn2)cn1 [No. 9, N-(3-fluoro-4-((2-(1-methyl-1H-pyrazol-4-yl)pyridin-4-yl)oxy)phenyl)-3-(4-fluorophenyl)-1-(2-hydroxyethyl)-2,4-dioxo-1,2,3,4-tetrahydropyrimidin-5-carboxamide] | > 100 | 10 to 100 |
| CC(C)n1cc(C(=O)Nc2ccc(Oc3ccnc(-c4cnn(C)c4)c3)cc2)c(=O)n(-c2ccc(F)cc2)c1=O [No. 25, 3-(4-fluorophenyl)-1-isopropyl-N-(4-((2-(1-methyl-1H-pyrazol-4-yl)pyridin-4-yl)oxy)phenyl)-2,4-dioxo-1,2,3,4-tetrahydropyrimidin-5-carboxamide] | – | < 10 |

Results, then the compound that gave them:

| IC50 [1] [nM] | IC50 [2] [nM] | SMILES |
| --- | --- | --- |
| – | < 10 | CC(C)n1cc(C(=O)Nc2ccc(Oc3ccnc(-c4cnn(C)c4)c3)cc2F)c(=O)n(-c2ccc(F)cc2)c1=O [No. 26, N-(2-fluoro-4-((2-(1-methyl-1H-pyrazol-4-yl)pyridin-4-yl)oxy)phenyl)-3-(4-fluorophenyl)-1-isopropyl-2,4-dioxo-1,2,3,4-tetrahydropyrimidin-5-carboxamide] |
| – | 10 to 100 | CC(C)n1cc(C(=O)Nc2ccc(Oc3ccnc(-c4cnn(C)c4)c3)c(F)c2F)c(=O)n(-c2ccc(F)cc2)c1=O [No. 27, N-(2,3-difluoro-4-((2-(1-methyl-1H-pyrazol-4-yl)pyridin-4-yl)oxy)phenyl)-3-(4-fluorophenyl)-1-isopropyl-2,4-dioxo-1,2,3,4-tetrahydropyrimidin-5-carboxamide] |
| – | < 10 | CC(C)n1cc(C(=O)Nc2cc(F)c(Oc3ccnc(-c4cnn(C)c4)c3)c(F)c2)c(=O)n(-c2ccc(F)cc2)c1=O [No. 28, N-(3,5-difluoro-4-((2-(1-methyl-1H-pyrazol-4-yl)pyridin-4-yl)oxy)phenyl)-3-(4-fluorophenyl)-1-isopropyl-2,4-dioxo-1,2,3,4-tetrahydropyrimidin-5-carboxamide] |
| – | < 10 | CC(C)n1cc(C(=O)Nc2cc(F)c(Oc3ccnc(-c4cnn(C)c4)c3)cc2F)c(=O)n(-c2ccc(F)cc2)c1=O [No. 29, N-(2,5-difluoro-4-((2-(1-methyl-1H-pyrazol-4-yl)pyridin-4-yl)oxy)phenyl)-3-(4-fluorophenyl)-1-isopropyl-2,4-dioxo-1,2,3,4-tetrahydropyrimidin-5-carboxamide] |
| – | 10 to 100 | CC(C)n1cc(C(=O)Nc2ccc(Oc3ccnc(-c4cn[nH]c4)c3)c(F)c2)c(=O)n(-c2ccc(F)cc2)c1=O [No. 31, N-(4-((2-(1H-pyrazol-4-yl)pyridin-4-yl)oxy)-3-fluorophenyl)-3-(4-fluorophenyl)-1-isopropyl-2,4-dioxo-1,2,3,4-tetrahydropyrimidin-5-carboxamide] |
| – | 10 to 100 | CC(C)n1cc(C(=O)Nc2ccc(Oc3ccnc(-c4cnn(CC(C)(C)O)c4)c3)c(F)c2)c(=O)n(-c2ccc(F)cc2)c1=O [No. 32, N-(3-fluoro-4-((2-(1-(2-hydroxy-2-methylpropyl)-1H-pyrazol-4-yl)pyridin-4-yl)oxy)phenyl)-3-(4-fluorophenyl)-1-isopropyl-2,4-dioxo-1,2,3,4-tetrahydropyrimidin-5-carboxamide] |
| – | 10 to 100 | CC(C)n1cc(C(=O)Nc2ccc(Oc3ccnc(-c4cnn(C5CC5)c4)c3)c(F)c2)c(=O)n(-c2ccc(F)cc2)c1=O [No. 33, N-(4-((2-(1-cyclopropyl-1H-pyrazol-4-yl)pyridin-4-yl)oxy)-3-fluorophenyl)-3-(4-fluorophenyl)-1-isopropyl-2,4-dioxo-1,2,3,4-tetrahydropyrimidin-5-carboxamide] |
| – | 10 to 100 | CC(C)n1cc(C(=O)Nc2ccc(Oc3ccnc(-c4cnn(CCN5CCN(C)CC5)c4)c3)c(F)c2)c(=O)n(-c2ccc(F)cc2)c1=O [No. 34, N-(3-fluoro-4-((2-(1-(2-(4-methylpiperazin-1-yl)ethyl)-1H-pyrazol-4-yl)pyridin-4-yl)oxy)phenyl)-3-(4-fluorophenyl)-1-isopropyl-2,4-dioxo-1,2,3,4-tetrahydropyrimidin-5-carboxamide] |
| – | 10 to 100 | Cc1nn(C)cc1-c1cc(Oc2ccc(NC(=O)c3cn(C(C)C)c(=O)n(-c4ccc(F)cc4)c3=O)cc2F)ccn1 [No. 35, N-(4-((2-(1,3-dimethyl-1H-pyrazol-4-yl)pyridin-4-yl)oxy)-3-fluorophenyl)-3-(4-fluorophenyl)-1-isopropyl-2,4-dioxo-1,2,3,4-tetrahydropyrimidin-5-carboxamide] |
| – | 10 to 100 | CC(C)n1cc(C(=O)Nc2ccc(Oc3ccncc3-c3cnn(C)c3)cc2)c(=O)n(-c2ccc(F)cc2)c1=O [No. 36, 3-(4-fluorophenyl)-1-isopropyl-N-(4-((3-(1-methyl-1H-pyrazol-4-yl)pyridin-4-yl)oxy)phenyl)-2,4-dioxo-1,2,3,4-tetrahydropyrimidin-5-carboxamide] |
| – | 10 to 100 | CCn1cc(C(=O)Nc2ccc(Oc3ccncc3-c3cnn(C)c3)cc2)c(=O)n(-c2ccc(F)cc2)c1=O [No. 52, 3-(4-fluorophenyl)-1-ethyl-N-(4-((3-(1-methyl-1H-pyrazol-4-yl)pyridin-4-yl)oxy)phenyl)-2,4-dioxo-1,2,3,4-tetrahydropyrimidin-5-carboxamide] |
| – | > 100 | Cn1cc(-c2cnccc2Oc2ccc(NC(=O)c3cn(C)c(=O)n(-c4ccc(F)cc4)c3=O)cc2)cn1 [No. 53, 3-(4-fluorophenyl)-1-methyl-N-(4-((3-(1-methyl-1H-pyrazol-4-yl)pyridin-4-yl)oxy)phenyl)-2,4-dioxo-1,2,3,4-tetrahydropyrimidin-5-carboxamide] |
| – | 10 to 100 | Cn1cc(-c2cnccc2Oc2ccc(NC(=O)c3cn(CC4CCOCC4)c(=O)n(-c4ccc(F)cc4)c3=O)cc2)cn1 [No. 54, 3-(4-fluorophenyl)-N-(4-((3-(1-methyl-1H-pyrazol-4-yl)pyridin-4-yl)oxy)phenyl)-2,4-dioxo-1-((tetrahydro-2H-pyran-4-yl)methyl)-1,2,3,4-tetrahydropyrimidin-5-carboxamide] |
| > 100 | – | COc1cc(NC(=O)c2cn(C(C)C)c(=O)n(-c3ccc(F)cc3)c2=O)ccc1Oc1ccnc(-c2cnn(C)c2)c1 [No. 58, 3-(4-fluorophenyl)-1-isopropyl-N-(3-methoxy-4-((2-(1-methyl-1H-pyrazol-4-yl)pyridin-4-yl)oxy)phenyl)-2,4-dioxo-1,2,3,4-tetrahydropyrimidin-5-carboxamide] |
